Measured values as given in ChEMBL document CHEMBL3045592, “Studies of O,O-dimethyl α-(2,4-dichlorophenoxyacetoxy)ethylphosphonate (HW02) as a new herbicide. 1. Synthesis and herbicidal activity of HW02 and analogues as novel inhibitors of pyruvate dehydrogenase complex” (J Agric Food Chem, 2011).
pIC50: −log10 of the molar value.

Assays:
Brassica juncea = test: Post-emergence herbicidal activity against Brassica juncea assessed as growth inhibition at 450 ai g/ha after 20 days by green house test; type: functional
Digitaria sanguinalis [1] = test: Post-emergence herbicidal activity against Digitaria sanguinalis (hairy crabgrass) assessed as growth inhibition at 75 ai g/ha after 20 days by green house test; type: functional
Digitaria sanguinalis [2] = test: Pre-emergence herbicidal activity against Digitaria sanguinalis (hairy crabgrass) assessed as growth inhibition at 450 ai g/ha after 20 days by green house test; type: functional
Digitaria sanguinalis [3] = test: Pre-emergence herbicidal activity against Digitaria sanguinalis (hairy crabgrass) assessed as growth inhibition at 150 ai g/ha after 20 days by green house test; type: functional
Digitaria sanguinalis [4] = test: Pre-emergence herbicidal activity against Digitaria sanguinalis (hairy crabgrass) assessed as growth inhibition at 75 ai g/ha after 20 days by green house test; type: functional
Chenopodium album [5] = test: Post-emergence herbicidal activity against Chenopodium album assessed as growth inhibition at 450 ai g/ha after 20 days by green house test; type: functional
Chenopodium album [6] = test: Post-emergence herbicidal activity against Chenopodium album assessed as growth inhibition at 150 ai g/ha after 20 days by green house test; type: functional
Chenopodium album [7] = test: Post-emergence herbicidal activity against Chenopodium album assessed as growth inhibition at 75 ai g/ha after 20 days by green house test; type: functional
Chenopodium album [8] = test: Pre-emergence herbicidal activity against Chenopodium album assessed as growth inhibition at 450 ai g/ha after 20 days by green house test; type: functional
Chenopodium album [9] = test: Pre-emergence herbicidal activity against Chenopodium album assessed as growth inhibition at 150 ai g/ha after 20 days by green house test; type: functional
Chenopodium album [10] = test: Pre-emergence herbicidal activity against Chenopodium album assessed as growth inhibition at 75 ai g/ha after 20 days by green house test; type: functional
Amaranthus spinosus [11] = test: Post-emergence herbicidal activity against Amaranthus spinosus assessed as growth inhibition at 450 ai g/ha after 20 days by green house test; type: functional
Amaranthus spinosus [12] = test: Post-emergence herbicidal activity against Amaranthus spinosus assessed as growth inhibition at 150 ai g/ha after 20 days by green house test; type: functional
Amaranthus spinosus [13] = test: Post-emergence herbicidal activity against Amaranthus spinosus assessed as growth inhibition at 75 ai g/ha after 20 days by green house test; type: functional
[14] = biological target: Pyruvate dehydrogenase complex (Vigna radiata var. radiata); test: Inhibition of PDHc in Vigna radiata var. radiata VC2778A shoot mitochondria assessed as decrease in rate of NADH formation using sodium pyruvate as substrate preincubated for 25 min before substrate addition measured after 1 min by spectrophotometric assay; type: protein-complex assay
Echinochloa crus-galli [15] = test: Post-emergence herbicidal activity against Echinochloa crus-galli (barnyard grass) assessed as growth inhibition at 450 ai g/ha after 20 days by green house test; type: functional
Abutilon theophrasti [16] = test: Post-emergence herbicidal activity against Abutilon theophrasti (velvetleaf) assessed as growth inhibition at 75 ai g/ha after 20 days by green house test; type: functional
Abutilon theophrasti [17] = test: Pre-emergence herbicidal activity against Abutilon theophrasti (velvetleaf) assessed as growth inhibition at 450 ai g/ha after 20 days by green house test; type: functional
Abutilon theophrasti [18] = test: Pre-emergence herbicidal activity against Abutilon theophrasti (velvetleaf) assessed as growth inhibition at 150 ai g/ha after 20 days by green house test; type: functional
Abutilon theophrasti [19] = test: Pre-emergence herbicidal activity against Abutilon theophrasti (velvetleaf) assessed as growth inhibition at 75 ai g/ha after 20 days by green house test; type: functional
Cucumis sativus [20] = test: Herbicidal activity against Cucumis sativus Jin 4 (cucumber) assessed as inhibition of stem growth after 3 days; type: functional, organism-based; conditions: Jin 4, 72 h
Medicago sativa [21] = test: Post-emergence herbicidal activity against Medicago sativa (alfalfa) assessed as growth inhibition at 1500 ai g/ha after 20 days by green house test; type: functional
Amaranthus retroflexus [22] = test: Post-emergence herbicidal activity against Amaranthus retroflexus assessed as growth inhibition at 1500 ai g/ha after 20 days by green house test; type: functional
[23] = tested on: Brassica rapa subsp. oleifera; test: Post-emergence herbicidal activity against Brassica rapa subsp. oleifera Si Yue Man assessed as growth inhibition at 1500 ai g/ha after 20 days by green house test; type: functional
Digitaria sanguinalis [24] = test: Post-emergence herbicidal activity against Digitaria sanguinalis (hairy crabgrass) assessed as growth inhibition at 1500 ai g/ha after 20 days by green house test; type: functional
Echinochloa crus-galli [25] = test: Post-emergence herbicidal activity against Echinochloa crus-galli (barnyard grass) assessed as growth inhibition at 1500 ai g/ha after 20 days by green house test; type: functional
Medicago sativa [26] = test: Pre-emergence herbicidal activity against Medicago sativa (alfalfa) assessed as growth inhibition at 1500 ai g/ha after 20 days by green house test; type: functional
Amaranthus retroflexus [27] = test: Pre-emergence herbicidal activity against Amaranthus retroflexus assessed as growth inhibition at 1500 ai g/ha after 20 days by green house test; type: functional
[28] = tested on: Brassica rapa subsp. oleifera; test: Pre-emergence herbicidal activity against Brassica rapa subsp. oleifera Si Yue Man assessed as growth inhibition at 1500 ai g/ha after 20 days by green house test; type: functional
Digitaria sanguinalis [29] = test: Pre-emergence herbicidal activity against Digitaria sanguinalis (hairy crabgrass) assessed as growth inhibition at 1500 ai g/ha after 20 days by green house test; type: functional
Echinochloa crus-galli [30] = test: Pre-emergence herbicidal activity against Echinochloa crus-galli (barnyard grass) assessed as growth inhibition at 1500 ai g/ha after 20 days by green house test; type: functional
Amaranthus spinosus [31] = test: Pre-emergence herbicidal activity against Amaranthus spinosus assessed as growth inhibition at 450 ai g/ha after 20 days by green house test; type: functional
Amaranthus spinosus [32] = test: Pre-emergence herbicidal activity against Amaranthus spinosus assessed as growth inhibition at 150 ai g/ha after 20 days by green house test; type: functional
Amaranthus spinosus [33] = test: Pre-emergence herbicidal activity against Amaranthus spinosus assessed as growth inhibition at 75 ai g/ha after 20 days by green house test; type: functional
[34] = Toxicity against Oryza sativa (rice) assessed as growth inhibition at 450 ai g/ha post-emergent application measured after 20 days by green house crop selectivity test; type: organism-based; conditions: in vivo, read-out: GI
Abutilon theophrasti [35] = test: Post-emergence herbicidal activity against Abutilon theophrasti (velvetleaf) assessed as growth inhibition at 450 ai g/ha after 20 days by green house test; type: functional
Amaranthus retroflexus [36] = test: Post-emergence herbicidal activity against Amaranthus retroflexus assessed as growth inhibition at 450 ai g/ha after 20 days by green house test; type: functional
Cucumis sativus [37] = test: Herbicidal activity against Cucumis sativus Jin 4 (cucumber) assessed as inhibition of root growth after 3 days; type: functional, organism-based; conditions: Jin 4, 72 h
Abutilon theophrasti [38] = test: Post-emergence herbicidal activity against Abutilon theophrasti (velvetleaf) assessed as growth inhibition at 150 ai g/ha after 20 days by green house test; type: functional
Setaria viridis [39] = test: Post-emergence herbicidal activity against Setaria viridis (green foxtail) assessed as growth inhibition at 450 ai g/ha after 20 days by green house test; type: functional
Setaria viridis [40] = test: Post-emergence herbicidal activity against Setaria viridis (green foxtail) assessed as growth inhibition at 150 ai g/ha after 20 days by green house test; type: functional
Setaria viridis [41] = test: Post-emergence herbicidal activity against Setaria viridis (green foxtail) assessed as growth inhibition at 75 ai g/ha after 20 days by green house test; type: functional
Setaria viridis [42] = test: Pre-emergence herbicidal activity against Setaria viridis (green foxtail) assessed as growth inhibition at 450 ai g/ha after 20 days by green house test; type: functional
Setaria viridis [43] = test: Pre-emergence herbicidal activity against Setaria viridis (green foxtail) assessed as growth inhibition at 150 ai g/ha after 20 days by green house test; type: functional
Setaria viridis [44] = test: Pre-emergence herbicidal activity against Setaria viridis (green foxtail) assessed as growth inhibition at 75 ai g/ha after 20 days by green house test; type: functional
Digitaria sanguinalis [45] = test: Post-emergence herbicidal activity against Digitaria sanguinalis (hairy crabgrass) assessed as growth inhibition at 450 ai g/ha after 20 days by green house test; type: functional
Digitaria sanguinalis [46] = test: Post-emergence herbicidal activity against Digitaria sanguinalis (hairy crabgrass) assessed as growth inhibition at 150 ai g/ha after 20 days by green house test; type: functional
Pisum sativum = test: Post-emergence herbicidal activity against Pisum sativum Zhongwan-2 (pea) assessed as growth inhibition at 450 ai g/ha after 20 days by green house test; conditions: Lathyrus oleraceus

COP(=O)(COC(=O)COc1ccc(Cl)cc1Cl)OC
growth inhibition (GI) (Brassica juncea): 100%
growth inhibition (GI) (Digitaria sanguinalis [1]): 0%
growth inhibition (GI) (Digitaria sanguinalis [2]): 0%
growth inhibition (GI) (Digitaria sanguinalis [3]): 0%
growth inhibition (GI) (Digitaria sanguinalis [4]): 0%
growth inhibition (GI) (Chenopodium album [5]): 100%
growth inhibition (GI) (Chenopodium album [6]): 99.5%
growth inhibition (GI) (Chenopodium album [7]): 82.5%
growth inhibition (GI) (Chenopodium album [8]): 52.5%
growth inhibition (GI) (Chenopodium album [9]): 0%
growth inhibition (GI) (Chenopodium album [10]): 0%
growth inhibition (GI) (Amaranthus spinosus [11]): 97.5%
growth inhibition (GI) (Amaranthus spinosus [12]): 92.5%
growth inhibition (GI) (Amaranthus spinosus [13]): 62.5%
pIC50 [14]: 4.71
growth inhibition (GI) (Echinochloa crus-galli [15]): 0%
growth inhibition (GI) (Abutilon theophrasti [16]): 82.5%
growth inhibition (GI) (Abutilon theophrasti [17]): 47.5%
growth inhibition (GI) (Abutilon theophrasti [18]): 0%
growth inhibition (GI) (Abutilon theophrasti [19]): 0%
pIC50 (Cucumis sativus [20]): 5.11
growth inhibition (GI) (Medicago sativa [21]): 90%
growth inhibition (GI) (Amaranthus retroflexus [22]): 90%
growth inhibition (GI) [23]: 90%
growth inhibition (GI) (Digitaria sanguinalis [24]): <=50%
growth inhibition (GI) (Echinochloa crus-galli [25]): <=50%
growth inhibition (GI) (Medicago sativa [26]): 75%
growth inhibition (GI) (Amaranthus retroflexus [27]): 90%
growth inhibition (GI) [28]: 90%
growth inhibition (GI) (Digitaria sanguinalis [29]): 90%
growth inhibition (GI) (Echinochloa crus-galli [30]): <=50%
growth inhibition (GI) (Amaranthus spinosus [31]): 52.5%
growth inhibition (GI) (Amaranthus spinosus [32]): 0%
growth inhibition (GI) (Amaranthus spinosus [33]): 0%
inhibition at 480 h [34]: 0%
growth inhibition (GI) (Abutilon theophrasti [35]): 100%
growth inhibition (GI) (Amaranthus retroflexus [36]): 97.5%
pIC50 (Cucumis sativus [37]): 7.24
growth inhibition (GI) (Abutilon theophrasti [38]): 99%
growth inhibition (GI) (Setaria viridis [39]): 0%
growth inhibition (GI) (Setaria viridis [40]): 0%
growth inhibition (GI) (Setaria viridis [41]): 0%
growth inhibition (GI) (Setaria viridis [42]): 5%
growth inhibition (GI) (Setaria viridis [43]): 0%
growth inhibition (GI) (Setaria viridis [44]): 0%
growth inhibition (GI) (Digitaria sanguinalis [45]): 0%
growth inhibition (GI) (Digitaria sanguinalis [46]): 0%
growth inhibition (GI) (Pisum sativum): 87.5%

COP(=O)(OC)C(OC(=O)COc1ccc(Cl)cc1Cl)c1ccccc1 (stereo unspecified)
growth inhibition (GI) (Brassica juncea): 97.5%
growth inhibition (GI) (Digitaria sanguinalis [1]): 0%
growth inhibition (GI) (Digitaria sanguinalis [2]): 45%
growth inhibition (GI) (Digitaria sanguinalis [3]): 0%
growth inhibition (GI) (Digitaria sanguinalis [4]): 0%
growth inhibition (GI) (Chenopodium album [5]): 97.5%
growth inhibition (GI) (Chenopodium album [6]): 92.5%
growth inhibition (GI) (Chenopodium album [7]): 82.5%
growth inhibition (GI) (Chenopodium album [8]): 0%
growth inhibition (GI) (Chenopodium album [9]): 0%
growth inhibition (GI) (Chenopodium album [10]): 0%
growth inhibition (GI) (Amaranthus spinosus [11]): 87.5%
growth inhibition (GI) (Amaranthus spinosus [12]): 70%
growth inhibition (GI) (Amaranthus spinosus [13]): 62.5%
pIC50 [14]: 4.02
growth inhibition (GI) (Echinochloa crus-galli [15]): 25%
growth inhibition (GI) (Abutilon theophrasti [16]): 82.5%
growth inhibition (GI) (Abutilon theophrasti [17]): 0%
growth inhibition (GI) (Abutilon theophrasti [18]): 0%
growth inhibition (GI) (Abutilon theophrasti [19]): 0%
pIC50 (Cucumis sativus [20]): 5.05
growth inhibition (GI) (Medicago sativa [21]): 90%
growth inhibition (GI) (Amaranthus retroflexus [22]): 90%
growth inhibition (GI) [23]: 90%
growth inhibition (GI) (Digitaria sanguinalis [24]): <=50%
growth inhibition (GI) (Echinochloa crus-galli [25]): <=50%
growth inhibition (GI) (Medicago sativa [26]): 90%
growth inhibition (GI) (Amaranthus retroflexus [27]): 90%
growth inhibition (GI) [28]: 90%
growth inhibition (GI) (Digitaria sanguinalis [29]): 50%
growth inhibition (GI) (Echinochloa crus-galli [30]): 50%
growth inhibition (GI) (Amaranthus spinosus [31]): 0%
growth inhibition (GI) (Amaranthus spinosus [32]): 0%
growth inhibition (GI) (Amaranthus spinosus [33]): 0%
inhibition at 480 h [34]: 10%
growth inhibition (GI) (Abutilon theophrasti [35]): 100%
growth inhibition (GI) (Amaranthus retroflexus [36]): 87.5%
pIC50 (Cucumis sativus [37]): 7.85
growth inhibition (GI) (Abutilon theophrasti [38]): 92.5%
growth inhibition (GI) (Setaria viridis [39]): 0%
growth inhibition (GI) (Setaria viridis [40]): 0%
growth inhibition (GI) (Setaria viridis [41]): 0%
growth inhibition (GI) (Setaria viridis [42]): 30%
growth inhibition (GI) (Setaria viridis [43]): 0%
growth inhibition (GI) (Setaria viridis [44]): 0%
growth inhibition (GI) (Digitaria sanguinalis [45]): 0%
growth inhibition (GI) (Digitaria sanguinalis [46]): 0%
growth inhibition (GI) (Pisum sativum): 96.5%
